# What was measured:
# Experiment in all cases: relative viability (nuclei count vs DMSO), 5 days (fraction); higher = more cells survive
# [1] = test system: NCI-H1975
# How it was run: (§1)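 Nuclei were stained with Hoechst during a one-step fixation (final 0.05% Triton X-100, 1% formaldehyde, 1 ug/ml Hoechst) carried out 5 days after dosing, then counted on 4× images. The cells, lung cancer lines in 1536-well plates, had been dosed by pin tool the day after seeding with one drug alone or a fixed anchor-drug dose plus five library-drug doses (not always all listed) in √10 steps. Relative viability is the nuclei count in treated wells divided by that in vehicle wells, and each value is the median of duplicate plates.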
# [2] = test system: LK-2
# How it was run: as §1
# [3] = test system: EKVX
# How it was run: as §1
# [4] = test system: ChaGo-K-1
# How it was run: as §1
# [5] = test system: EPLC-272H
# How it was run: as §1
# [6] = test system: NCI-H1666
# How it was run: as §1
# [7] = test system: SW 1573
# How it was run: as §1
# [8] = test system: EMC-BAC-2
# How it was run: as §1
# [9] = test system: HCC-78
# How it was run: as §1
# [10] = test system: LCLC-103H
# How it was run: as §1
# [11] = test system: NCI-H322M
# How it was run: as §1
# [12] = test system: LU99A
# How it was run: as §1
# [13] = test system: SW 900
# How it was run: as §1
# [14] = test system: HCC-827
# How it was run: as §1
# [15] = test system: NCI-H2342
# How it was run: as §1
# [16] = test system: RERF-LC-KJ
# How it was run: as §1
# [17] = test system: NCI-H23
# How it was run: as §1
# [18] = test system: SK-LU-1
# How it was run: as §1
# [19] = test system: PC-14
# How it was run: as §1
# [20] = test system: NCI-H2126
# How it was run: as §1
# [21] = test system: NCI-H2405
# How it was run: as §1
smiles,measurement,setting,value
COc1cc2nccc(Oc3ccc(NC(=O)Nc4cc(C)on4)c(Cl)c3)c2cc1OC [Tivozanib] + CC(=O)c1c(C)c2cnc(Nc3ccc(N4CCNCC4)cn3)nc2n(C2CCCC2)c1=O [Palbociclib] (partner 0.5 µM),relative viability,[1]; first compound 0.005 µM,0.585
same,relative viability,[1]; first compound 0.01581 µM,0.609
same,relative viability,[1]; first compound 0.05 µM,0.648
same,relative viability,[1]; first compound 0.1581 µM,0.341
same,relative viability,[1]; first compound 0.5 µM,0.509
same,relative viability,[2]; first compound 0.005 µM,0.664
same,relative viability,[2]; first compound 0.01581 µM,0.674
same,relative viability,[2]; first compound 0.05 µM,0.503
same,relative viability,[2]; first compound 0.1581 µM,0.875
same,relative viability,[2]; first compound 0.5 µM,0.742
same,relative viability,[3]; first compound 0.005 µM,0.37
same,relative viability,[3]; first compound 0.01581 µM,0.455
same,relative viability,[3]; first compound 0.05 µM,0.449
same,relative viability,[3]; first compound 0.1581 µM,0.291
same,relative viability,[3]; first compound 0.5 µM,0.407
same,relative viability,[4]; first compound 0.005 µM,0.879
same,relative viability,[4]; first compound 0.01581 µM,0.916
same,relative viability,[4]; first compound 0.05 µM,0.898
same,relative viability,[4]; first compound 0.1581 µM,0.947
same,relative viability,[4]; first compound 0.5 µM,0.886
same,relative viability,[5]; first compound 0.005 µM,0.268
same,relative viability,[5]; first compound 0.01581 µM,0.303
same,relative viability,[5]; first compound 0.05 µM,0.35
same,relative viability,[5]; first compound 0.1581 µM,0.348
same,relative viability,[5]; first compound 0.5 µM,0.282
same,relative viability,[6]; first compound 0.005 µM,0.628
same,relative viability,[6]; first compound 0.01581 µM,0.666
same,relative viability,[6]; first compound 0.05 µM,0.639
same,relative viability,[6]; first compound 0.1581 µM,0.668
same,relative viability,[6]; first compound 0.5 µM,0.642
same,relative viability,[7]; first compound 0.005 µM,0.344
same,relative viability,[7]; first compound 0.01581 µM,0.412
same,relative viability,[7]; first compound 0.05 µM,0.418
same,relative viability,[7]; first compound 0.1581 µM,0.391
same,relative viability,[7]; first compound 0.5 µM,0.344
same,relative viability,[8]; first compound 0.005 µM,0.524
same,relative viability,[8]; first compound 0.01581 µM,0.543
same,relative viability,[8]; first compound 0.05 µM,0.529
same,relative viability,[8]; first compound 0.1581 µM,0.521
same,relative viability,[8]; first compound 0.5 µM,0.494
same,relative viability,[9]; first compound 0.005 µM,0.514
same,relative viability,[9]; first compound 0.01581 µM,0.438
same,relative viability,[9]; first compound 0.05 µM,0.474
same,relative viability,[9]; first compound 0.1581 µM,0.416
same,relative viability,[9]; first compound 0.5 µM,0.463
same,relative viability,[10]; first compound 0.005 µM,0.452
same,relative viability,[10]; first compound 0.01581 µM,0.512
same,relative viability,[10]; first compound 0.05 µM,0.519
same,relative viability,[10]; first compound 0.1581 µM,0.551
same,relative viability,[10]; first compound 0.5 µM,0.471
same,relative viability,[11]; first compound 0.005 µM,0.467
same,relative viability,[11]; first compound 0.01581 µM,0.478
same,relative viability,[11]; first compound 0.05 µM,0.522
same,relative viability,[11]; first compound 0.1581 µM,0.538
same,relative viability,[11]; first compound 0.5 µM,0.513
same,relative viability,[12]; first compound 0.005 µM,0.431
same,relative viability,[12]; first compound 0.01581 µM,0.412
same,relative viability,[12]; first compound 0.05 µM,0.429
same,relative viability,[12]; first compound 0.1581 µM,0.306
same,relative viability,[12]; first compound 0.5 µM,0.408
same,relative viability,[13]; first compound 0.005 µM,0.519
same,relative viability,[13]; first compound 0.01581 µM,0.552
same,relative viability,[13]; first compound 0.05 µM,0.559
same,relative viability,[13]; first compound 0.5 µM,0.531
same,relative viability,[14]; first compound 0.005 µM,0.498
same,relative viability,[14]; first compound 0.01581 µM,0.506
same,relative viability,[14]; first compound 0.05 µM,0.539
same,relative viability,[14]; first compound 0.1581 µM,0.448
same,relative viability,[14]; first compound 0.5 µM,0.412
same,relative viability,[15]; first compound 0.005 µM,0.495
same,relative viability,[15]; first compound 0.01581 µM,0.524
same,relative viability,[15]; first compound 0.05 µM,0.536
same,relative viability,[15]; first compound 0.5 µM,0.469
same,relative viability,[16]; first compound 0.005 µM,1.01
same,relative viability,[16]; first compound 0.01581 µM,1.05
same,relative viability,[16]; first compound 0.05 µM,1.11
same,relative viability,[16]; first compound 0.1581 µM,1.08
same,relative viability,[16]; first compound 0.5 µM,1.04
same,relative viability,[17]; first compound 0.005 µM,0.459
same,relative viability,[17]; first compound 0.01581 µM,0.569
same,relative viability,[17]; first compound 0.05 µM,0.488
same,relative viability,[17]; first compound 0.5 µM,0.497
same,relative viability,[18]; first compound 0.005 µM,0.372
same,relative viability,[18]; first compound 0.01581 µM,0.396
same,relative viability,[18]; first compound 0.05 µM,0.386
same,relative viability,[18]; first compound 0.1581 µM,0.367
same,relative viability,[18]; first compound 0.5 µM,0.37
same,relative viability,[19]; first compound 0.005 µM,0.528
same,relative viability,[19]; first compound 0.01581 µM,0.538
same,relative viability,[19]; first compound 0.05 µM,0.549
same,relative viability,[19]; first compound 0.1581 µM,0.54
same,relative viability,[19]; first compound 0.5 µM,0.394
same,relative viability,[20]; first compound 0.005 µM,0.384
same,relative viability,[20]; first compound 0.01581 µM,0.345
same,relative viability,[20]; first compound 0.05 µM,0.352
same,relative viability,[20]; first compound 0.1581 µM,0.337
same,relative viability,[20]; first compound 0.5 µM,0.371
same,relative viability,[21]; first compound 0.005 µM,0.534
same,relative viability,[21]; first compound 0.01581 µM,0.55
same,relative viability,[21]; first compound 0.05 µM,0.528
same,relative viability,[21]; first compound 0.1581 µM,0.527
same,relative viability,[21]; first compound 0.5 µM,0.466

# Reference: the supplement of paper PMC10307832
